{"source": "patent US20230053864A1", "about": "“Methods for Identifying Modulators of G Protein-Coupled Receptors” (University of Miami, priority 2019, published 2023)", "key": {"[1]": {"tested_on": "20 GPCRs (200 GPCR-Gα strains)", "assay": "control dCyFIRscreen profiles against 20 GPCRs (200 GPCR-Gα strains)", "format": "cell-based, human", "conditions": "20 GPCRs incl. all 15 constitutively active receptors", "description": "dCyFIRscreen protocol. Individual Gα reporter strains were grown in SCD LoFo pH=7.0 at 30° C. to an OD=1.0 in a 2.0 mL 96-well DeepWell block (Greiner; 780271-FD). Cells were normalized to an OD of 0.1 in SCD LoFo pH=7.0 using a Biomek NXp liquid-handling robot. 10× ligand/vehicle stocks were prepared (see Table 2) and 4 μL were distributed to each well of a 384-well plate (Greiner; 781096) in quadruplicate using a Biomek NXp. 36 μL normalized cells were distributed to each well containing the appropriate 10× ligand/vehicle. Plates were sealed with a breathable cover (Diversified Biotech; BERM-2000) and incubated at 30° C. Fluorescence readings were collected after 18 hours using a plate reader (ClarioStar, BMG LabTech, Offenburg, Germany) (bottom read, 10 flashes/well, excitation filter: 430-10 nm, dichroic filter: LP 458 nm, emission filter: 482-16 nm, gain=1300 (1500 for FIG. 1B.)). Absorbance readings were also collected after 18 hours using the same instrument (22 flashes/well, excitation filter: 600 nm)."}, "HCAR3 [2]": {"target": "T1, HCAR3 (Homo sapiens, UniProt P49019)", "T1 sequence (P49019 whole entry)": "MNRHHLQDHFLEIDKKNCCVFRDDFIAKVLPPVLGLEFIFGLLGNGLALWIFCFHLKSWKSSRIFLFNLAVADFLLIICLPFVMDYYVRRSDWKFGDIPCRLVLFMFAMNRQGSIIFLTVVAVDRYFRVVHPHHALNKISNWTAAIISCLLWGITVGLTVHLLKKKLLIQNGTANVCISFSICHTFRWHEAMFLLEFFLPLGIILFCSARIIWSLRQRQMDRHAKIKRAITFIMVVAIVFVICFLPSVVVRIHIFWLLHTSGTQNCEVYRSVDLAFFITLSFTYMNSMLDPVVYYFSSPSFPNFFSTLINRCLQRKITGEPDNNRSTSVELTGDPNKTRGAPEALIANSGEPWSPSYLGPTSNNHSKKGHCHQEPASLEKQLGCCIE", "conditions": "literature value; read-out: EC50 at HCAR3 observed by Colosimo et al.; cited from earlier work"}, "ADRA2B": {"target": "T2, ADRA2B (Homo sapiens, UniProt P18089)", "T2 construct": "expressed in transfected cells; host or cells: Saccharomyces cerevisiae BY4741-derived GPCR-Gα reporter strains, X-2 landing pad", "T2 sequence (P18089 1-450)": "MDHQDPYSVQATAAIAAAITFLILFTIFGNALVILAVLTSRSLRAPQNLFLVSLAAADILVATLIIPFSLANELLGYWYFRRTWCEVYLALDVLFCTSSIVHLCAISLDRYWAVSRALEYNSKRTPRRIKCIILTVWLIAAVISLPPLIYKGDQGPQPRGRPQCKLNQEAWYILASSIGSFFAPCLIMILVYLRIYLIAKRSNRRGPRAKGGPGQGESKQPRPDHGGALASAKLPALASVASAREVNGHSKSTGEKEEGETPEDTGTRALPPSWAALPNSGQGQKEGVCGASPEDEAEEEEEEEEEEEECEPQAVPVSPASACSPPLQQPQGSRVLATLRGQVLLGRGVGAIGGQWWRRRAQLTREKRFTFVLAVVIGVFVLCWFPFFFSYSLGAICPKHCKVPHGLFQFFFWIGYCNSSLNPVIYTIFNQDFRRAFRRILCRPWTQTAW", "assay": "dCyFIRscreen profiling and titrations in yeast GPCR-Gα reporter strains", "format": "cell-based", "description": "dCyFIRscreen protocol. […] Cells were normalized to an OD of 0.1 in SCD LoFo pH=7.0 using a Biomek NXp liquid-handling robot. […] 36 μL normalized cells were distributed to each well containing the appropriate 10× ligand/vehicle. Plates were sealed with a breathable cover (Diversified Biotech; BERM-2000) and incubated at 30° C. […] Absorbance readings were also collected after 18 hours using the same instrument (22 flashes/well, excitation filter: 600 nm).\nTitration Analyses. All titration curves were analyzed using Prism software and the pharmacological fitting function log(agonist) vs. response—Variable slope (four parameters) (GraphPad Software, San Diego, USA)."}, "HCAR3 [3]": {"target": "T1, HCAR3", "assay": "dCyFIRscreen profiling and titrations in yeast GPCR-Gα reporter strains", "format": "cell-based", "parameters": "expressed in transfected cells", "description": "(§1) Individual Gα reporter strains were grown in SCD LoFo pH=7.0 at 30° C. to an OD=1.0 in a 2.0 mL 96-well DeepWell block (Greiner; 780271-FD). Cells were normalized to an OD of 0.1 in SCD LoFo pH=7.0 using a Biomek NXp liquid-handling robot. 10× ligand/vehicle stocks were prepared (see Table 2) and 4 μL were distributed to each well of a 384-well plate (Greiner; 781096) in quadruplicate using a Biomek NXp. 36 μL normalized cells were distributed to each well containing the appropriate 10× ligand/vehicle. Plates were sealed with a breathable cover (Diversified Biotech; BERM-2000) and incubated at 30° C. Fluorescence readings were collected after 18 hours using a plate reader (ClarioStar, BMG LabTech, Offenburg, Germany) (bottom read, 10 flashes/well, excitation filter: 430-10 nm, dichroic filter: LP 458 nm, emission filter: 482-16 nm, gain=1300 (1500 for FIG. 1B.)). Absorbance readings were also collected after 18 hours using the same instrument (22 flashes/well, excitation filter: 600 nm).\n(§2) All titration curves were analyzed using Prism software and the pharmacological fitting function log(agonist) vs. response—Variable slope (four parameters) (GraphPad Software, San Diego, USA)."}, "LPAR1": {"target": "T3, LPAR1 (Homo sapiens, UniProt Q92633)", "T3 construct": "expressed in transfected cells; host or cells: Saccharomyces cerevisiae BY4741-derived GPCR-Gα reporter strains, X-2 landing pad", "T3 sequence (Q92633 whole entry)": "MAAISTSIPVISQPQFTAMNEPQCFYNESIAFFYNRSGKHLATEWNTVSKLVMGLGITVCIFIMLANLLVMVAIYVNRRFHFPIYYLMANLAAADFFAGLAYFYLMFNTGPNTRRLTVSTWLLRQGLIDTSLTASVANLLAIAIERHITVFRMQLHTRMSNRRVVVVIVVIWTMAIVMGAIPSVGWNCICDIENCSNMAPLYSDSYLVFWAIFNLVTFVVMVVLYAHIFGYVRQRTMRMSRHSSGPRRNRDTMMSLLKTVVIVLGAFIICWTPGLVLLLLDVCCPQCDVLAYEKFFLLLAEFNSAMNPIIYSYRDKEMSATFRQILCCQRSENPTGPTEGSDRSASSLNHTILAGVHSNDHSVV", "assay": "dCyFIRscreen profiling and titrations in yeast GPCR-Gα reporter strains", "format": "cell-based", "description": "as §1, §2"}, "GPR35": {"target": "T4, GPR35 (Homo sapiens, UniProt Q9HC97)", "T4 construct": "expressed in transfected cells; host or cells: Saccharomyces cerevisiae BY4741-derived GPCR-Gα reporter strains, X-2 landing pad", "T4 sequence (Q9HC97 whole entry)": "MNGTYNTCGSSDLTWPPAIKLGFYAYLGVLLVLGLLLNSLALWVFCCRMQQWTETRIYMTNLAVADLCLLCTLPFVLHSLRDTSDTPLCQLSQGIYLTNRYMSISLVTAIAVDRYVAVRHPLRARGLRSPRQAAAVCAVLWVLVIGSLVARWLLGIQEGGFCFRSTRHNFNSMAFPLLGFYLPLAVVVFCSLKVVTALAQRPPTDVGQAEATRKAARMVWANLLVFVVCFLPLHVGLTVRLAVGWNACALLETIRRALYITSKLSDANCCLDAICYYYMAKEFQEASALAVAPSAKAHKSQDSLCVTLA", "assay": "dCyFIRscreen profiling and titrations in yeast GPCR-Gα reporter strains", "format": "cell-based", "description": "as §1, §2"}, "ADORA2A": {"target": "T5, ADORA2A (Homo sapiens, UniProt P29274)", "T5 construct": "expressed in transfected cells; host or cells: Saccharomyces cerevisiae BY4741-derived GPCR-Gα reporter strains, X-2 landing pad", "T5 sequence (P29274 whole entry)": "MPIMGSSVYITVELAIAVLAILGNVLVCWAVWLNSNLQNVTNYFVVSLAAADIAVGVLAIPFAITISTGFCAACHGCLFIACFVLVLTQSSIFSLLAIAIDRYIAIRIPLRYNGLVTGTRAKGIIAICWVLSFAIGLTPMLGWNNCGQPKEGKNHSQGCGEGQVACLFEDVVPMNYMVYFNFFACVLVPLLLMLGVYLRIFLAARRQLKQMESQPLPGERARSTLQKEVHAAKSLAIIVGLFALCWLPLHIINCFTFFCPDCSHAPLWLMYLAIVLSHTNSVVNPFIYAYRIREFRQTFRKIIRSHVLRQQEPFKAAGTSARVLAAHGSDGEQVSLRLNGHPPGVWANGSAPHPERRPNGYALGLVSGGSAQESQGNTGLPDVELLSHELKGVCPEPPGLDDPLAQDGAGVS", "assay": "dCyFIRscreen profiling and titrations in yeast GPCR-Gα reporter strains", "format": "cell-based", "description": "as §1, §2"}, "GPR4": {"target": "T6, GPR4 (Homo sapiens, UniProt P46093)", "T6 construct": "expressed in transfected cells; host or cells: Saccharomyces cerevisiae BY4741-derived GPCR-Gα reporter strains, X-2 landing pad", "T6 sequence (P46093 whole entry)": "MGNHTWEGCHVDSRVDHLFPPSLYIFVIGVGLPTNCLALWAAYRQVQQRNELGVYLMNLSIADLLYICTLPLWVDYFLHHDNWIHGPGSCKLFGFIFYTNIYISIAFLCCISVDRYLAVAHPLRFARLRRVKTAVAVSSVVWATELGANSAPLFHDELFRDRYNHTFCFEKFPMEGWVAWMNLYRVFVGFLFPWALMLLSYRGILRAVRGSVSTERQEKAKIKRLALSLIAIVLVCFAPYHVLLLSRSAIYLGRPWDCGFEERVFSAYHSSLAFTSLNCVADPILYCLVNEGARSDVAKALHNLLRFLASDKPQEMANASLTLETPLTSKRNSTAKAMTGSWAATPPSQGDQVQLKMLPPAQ", "assay": "dCyFIRscreen profiling in yeast GPCR-Gα reporter strains", "format": "cell-based", "description": "as §1"}, "LPAR4": {"target": "T7, LPAR4 (Homo sapiens, UniProt Q99677)", "T7 construct": "expressed in transfected cells; host or cells: Saccharomyces cerevisiae BY4741-derived GPCR-Gα reporter strains, X-2 landing pad", "T7 sequence (Q99677 whole entry)": "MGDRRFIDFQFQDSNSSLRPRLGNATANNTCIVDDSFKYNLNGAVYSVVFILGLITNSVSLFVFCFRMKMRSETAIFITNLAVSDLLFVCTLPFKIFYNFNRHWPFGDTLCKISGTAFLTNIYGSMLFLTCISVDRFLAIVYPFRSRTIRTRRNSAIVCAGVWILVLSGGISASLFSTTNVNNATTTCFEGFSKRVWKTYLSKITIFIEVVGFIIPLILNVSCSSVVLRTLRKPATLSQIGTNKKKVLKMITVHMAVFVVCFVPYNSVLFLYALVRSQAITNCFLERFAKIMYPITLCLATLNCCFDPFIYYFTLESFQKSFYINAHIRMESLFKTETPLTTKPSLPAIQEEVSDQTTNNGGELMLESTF", "assay": "dCyFIRscreen profiling in yeast GPCR-Gα reporter strains", "format": "cell-based", "description": "as §1"}, "HCAR2": {"target": "T8, HCAR2 (Homo sapiens, UniProt Q8TDS4)", "T8 construct": "expressed in transfected cells; host or cells: Saccharomyces cerevisiae BY4741-derived GPCR-Gα reporter strains, X-2 landing pad", "T8 sequence (Q8TDS4 whole entry)": "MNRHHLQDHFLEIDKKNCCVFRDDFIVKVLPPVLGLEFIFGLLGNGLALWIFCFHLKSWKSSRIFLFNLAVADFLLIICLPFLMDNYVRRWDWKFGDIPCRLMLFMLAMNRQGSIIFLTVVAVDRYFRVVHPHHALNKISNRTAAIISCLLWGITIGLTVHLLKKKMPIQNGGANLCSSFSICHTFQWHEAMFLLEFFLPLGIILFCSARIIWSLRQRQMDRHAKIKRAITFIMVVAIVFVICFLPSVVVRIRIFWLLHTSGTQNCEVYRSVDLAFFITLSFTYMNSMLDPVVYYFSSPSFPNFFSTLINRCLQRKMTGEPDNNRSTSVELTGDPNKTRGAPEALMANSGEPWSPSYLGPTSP", "assay": "dCyFIRscreen profiling in yeast GPCR-Gα reporter strains", "format": "cell-based", "description": "as §1"}, "GPR68": {"target": "T9, GPR68 (Homo sapiens, UniProt Q15743)", "T9 construct": "expressed in transfected cells; host or cells: Saccharomyces cerevisiae BY4741-derived GPCR-Gα reporter strains, X-2 landing pad", "T9 sequence (Q15743 whole entry)": "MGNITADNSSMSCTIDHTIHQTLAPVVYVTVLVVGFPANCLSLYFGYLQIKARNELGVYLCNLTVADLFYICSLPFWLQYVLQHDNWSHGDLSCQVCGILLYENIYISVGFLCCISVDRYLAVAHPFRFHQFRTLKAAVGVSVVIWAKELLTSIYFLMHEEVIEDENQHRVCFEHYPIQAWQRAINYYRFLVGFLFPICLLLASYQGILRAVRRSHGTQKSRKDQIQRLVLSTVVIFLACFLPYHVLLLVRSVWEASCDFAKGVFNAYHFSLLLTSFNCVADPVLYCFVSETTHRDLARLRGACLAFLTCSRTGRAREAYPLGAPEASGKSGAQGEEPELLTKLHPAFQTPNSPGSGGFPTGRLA", "assay": "dCyFIRscreen profiling and titrations in yeast GPCR-Gα reporter strains", "format": "cell-based", "description": "as §1, §2"}, "S1PR2": {"target": "T10, S1PR2 (Homo sapiens, UniProt O95136)", "T10 construct": "expressed in transfected cells; host or cells: Saccharomyces cerevisiae BY4741-derived GPCR-Gα reporter strains, X-2 landing pad", "T10 sequence (O95136 whole entry)": "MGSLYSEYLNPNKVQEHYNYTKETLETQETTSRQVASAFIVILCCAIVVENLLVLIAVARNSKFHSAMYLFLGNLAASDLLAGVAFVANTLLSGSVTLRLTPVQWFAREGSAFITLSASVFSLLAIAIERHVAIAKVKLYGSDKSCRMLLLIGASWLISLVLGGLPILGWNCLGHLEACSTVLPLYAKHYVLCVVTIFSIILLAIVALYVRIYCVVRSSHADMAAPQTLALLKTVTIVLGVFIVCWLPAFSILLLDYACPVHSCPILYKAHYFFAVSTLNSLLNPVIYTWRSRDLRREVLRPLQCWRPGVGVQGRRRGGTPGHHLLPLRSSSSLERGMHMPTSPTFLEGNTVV", "assay": "dCyFIRscreen profiling and titrations in yeast GPCR-Gα reporter strains", "format": "cell-based", "description": "as §1, §2"}, "S1PR1": {"target": "T11, S1PR1 (Homo sapiens, UniProt P21453)", "T11 construct": "expressed in transfected cells; host or cells: Saccharomyces cerevisiae BY4741-derived GPCR-Gα reporter strains, X-2 landing pad", "T11 sequence (P21453 whole entry)": "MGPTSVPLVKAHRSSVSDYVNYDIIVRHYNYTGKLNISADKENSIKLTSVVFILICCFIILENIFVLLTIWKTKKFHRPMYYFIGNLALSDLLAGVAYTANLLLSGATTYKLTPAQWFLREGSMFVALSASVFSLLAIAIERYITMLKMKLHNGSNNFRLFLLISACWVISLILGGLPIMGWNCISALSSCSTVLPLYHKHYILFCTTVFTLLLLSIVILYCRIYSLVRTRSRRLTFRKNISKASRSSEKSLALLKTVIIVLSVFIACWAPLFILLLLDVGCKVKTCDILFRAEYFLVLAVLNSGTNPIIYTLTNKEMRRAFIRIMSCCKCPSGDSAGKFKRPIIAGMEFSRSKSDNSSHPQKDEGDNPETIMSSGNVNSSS", "assay": "dCyFIRscreen profiling and titrations in yeast GPCR-Gα reporter strains", "format": "cell-based", "description": "as §1, §2"}, "[4]": {"tested_on": "300-plex of GPCR-Gα reporter strains", "assay": "dCyFIRplex FACS sorting of agonist-treated 300-plex", "format": "cell-based, Saccharomyces cerevisiae", "conditions": "following agonist treatment", "method": "dCyFIRplex protocol. […] 10× ligand/vehicle stocks were added to individual wells of a DeepWell block. The consolidated 300-plex or control strains were then added to each well and grown in the presence of ligand/vehicle overnight, so that each culture would reach an OD=4.0 before dCyFIRplex profiling. Samples were washed with sterile ddH2O and normalized to an OD=2.0 in SCD LoFo pH=7.0. Tracer cells were added to each sample at a 1:301 ratio. The final mixture was then transferred into a glass sample tube (USA Scientific; 1450-2810) and used for cell sorting. A BD FACSAria-II cell sorter was used for all dCyFIRplex experiments to assess mTq2 (405 nm excitation, 450/50 nm emission) and mRuby3 fluorescence (535 nm excitation, 610/20 nm emission). A gating strategy was set using the three control samples (DI P1 mTq2, individual Gα reporter strains lacking an integrated receptor, and DI P1 mRuby3) such that tracer cells and any cell expressing mTq2 was sorted into a 14 mL collection tube (USA Scientific; 1485-2810) containing 500 μL YPD. Samples treated with water or 500 μM adenosine (well-characterized using dCyFIRscreen, inexpensive, and water-soluble) were used to build a standard curve measuring total events in the mRuby3 and mTq2 positive gates. The standard curve from a water-treated 300-plex was used to determine the number of tracer events that would correspond to 15,000 events in the mTq2 gate for a water-treated 300-plex. Each sample was sorted until the standardized tracer count was reached. Sorted cells were enriched by outgrowth in 5 mL YPD at 30° C. with shaking (200 rpm) for 18 hours. Cells were harvested by centrifugation at 3,000×g for 5 min, and resuspended in 1 mL ddH2O. Cells were either processed immediately for qPCR deconvolution or frozen in 100 μL aliquots for storage at −20° C. The set of samples comparatively deconvoluted by qPCR and NanoString methods were derived from aliquots of the same dCyFIRplex experiments. […]"}}, "note": "Read-outs that look alike come from different tables or passages of the source.", "data": [{"compound": "CC(C)CCC[C@@H](C)[C@H]1CC[C@H]2[C@@H]3CC=C4C[C@@H](O)CC[C@]4(C)[C@H]3CC[C@]12C", "note": "[cholesterol]", "values": [{"measurement": "response in control dCyFIRscreen profiles", "setting": "[1]", "result": "Neither of these ligands elicited responses"}]}, {"compound": "O=C(O)CCc1ccccc1", "note": "[phenylpropanoic acid]", "values": [{"measurement": "EC50", "setting": "HCAR3 [2]", "result": 208, "unit": "µM"}]}, {"compound": "NCCc1ccccc1", "note": "[PEA, phenethylamine]", "values": [{"measurement": "activity at ADRA2B in words (mode of action, potency range)", "setting": "ADRA2B", "result": "micromolar"}]}, {"compound": "C[C@]12CC[C@@H](O)C[C@@H]1CC[C@@H]1[C@@H]2CC[C@]2(C)C(=O)CC[C@@H]12", "note": "[androsterone]", "values": [{"measurement": "activity at HCAR3 in words (mode of action, potency range)", "setting": "HCAR3 [3]", "result": "increase receptor signaling and PAMs"}, {"measurement": "activity at LPAR1 in words (mode of action)", "setting": "LPAR1", "result": "increase receptor signaling"}, {"measurement": "activity at GPR35 in words (mode of action, potency range)", "setting": "GPR35", "result": "increase receptor signaling"}, {"measurement": "activity at ADORA2A in words (mode of action)", "setting": "ADORA2A", "result": "increase receptor signaling"}, {"measurement": "activity at GPR4 in words (mode of action)", "setting": "GPR4", "result": "increase receptor signaling and PAMs"}, {"measurement": "activity at LPAR4 in words (mode of action)", "setting": "LPAR4", "result": "increase receptor signaling"}, {"measurement": "activity at HCAR2 in words (mode of action)", "setting": "HCAR2", "result": "increase receptor signaling"}, {"measurement": "activity at GPR68 in words (mode of action)", "setting": "GPR68", "result": "increase receptor signaling and PAMs"}]}, {"compound": "CCCCCC(O)CC(=O)O", "note": "(stereo not shown) [3-hydroxyoctanoic acid]", "values": [{"measurement": "fold higher EC50 at HCAR3 observed by Colosimo et al. versus this study", "setting": "HCAR3 [3]; 304 μM versus 24 μM", "result": 12.6, "unit": "fold"}, {"measurement": "EC50", "setting": "HCAR3 [3]; titration, yeast GPCR-Gα reporter strain, this study", "result": 24, "unit": "µM"}]}, {"compound": "CCCCCCCCCCC/C=C\\CCCCC(=O)O", "note": "[petroselinic acid]", "values": [{"measurement": "activity at S1PR2 in words (mode of action, potency range)", "setting": "S1PR2", "result": "agonist specific for"}, {"measurement": "activity at LPAR1 in words (mode of action)", "setting": "LPAR1", "result": "agonist specific for"}, {"measurement": "activity at S1PR1 in words (mode of action, potency range)", "setting": "S1PR1", "result": "agonist specific for"}]}, {"compound": "phenylethanolamine [PEOA]", "values": [{"measurement": "activity at ADRA2B in words (mode of action, potency range)", "setting": "ADRA2B", "result": "nanomolar"}]}, {"compound": "CCCCCCCCCCCCC/C=C/[C@@H](O)[C@@H](N)COP(=O)(O)O", "note": "[sphingosine-1-phosphate]", "values": [{"measurement": "active cell pool, fraction of cell-sorting events for the 300-plex", "setting": "[4]", "result": 1.8, "unit": "%"}]}, {"compound": "COc1ccc2[nH]cc(CCNC(C)=O)c2c1", "note": "[melatonin]", "values": [{"measurement": "active cell pool, fraction of cell-sorting events for the 300-plex", "setting": "[4]", "result": 1.0, "unit": "%"}]}]}
